Measurements taken from patent US20240381872A1, “SUBSTITUTED 2,3-DIHYDRO[1,3]THIAZOLO[4,5-B]PYRIDINES, SALTS THEREOF AND THEIR USE AS HERBICIDALLY ACTIVE SUBSTANCES” (BAYER AKTIENGESELLSCHAFT, priority 2021, published 2024).

Experiments:
Assay type in all cases: in vivo
[1] = tested on: Digitaria sanguinalis (DIGSA); assay: Herbicidal post-emergence action, section B (Table B12); conditions: visual rating about 3 weeks after treatment vs untreated controls; for pest or weed control at 1280 g/ha: Digitaria sanguinalis, post-emergence, 504 h, read-out: post-emergence activity against DIGSA in %
Summary of the method: (§1)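 Weeds were sown in sandy loam and grown in a greenhouse, then sprayed at the one-leaf stage 2 to 3 weeks after sowing. Compounds, formulated as WP or EC, went on as aqueous suspension or emulsion with 0.5% additive at 600 liters per hectare. Visual rating after about 3 weeks against untreated controls (100% = plants dead, 0% = like controls).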

[2] = tested on: Abutilon theophrasti (ABUTH); assay: Herbicidal pre-emergence action, section A (Table A1); conditions: visual grading after ca. 3 weeks vs untreated controls
Text: Seeds of mono- and dicotyledonous weed plants were sown in plastic pots (double sowings with one species of mono- and one species of dicotyledonous weed plants per pot), in sandy loam, and covered with soil. The compounds according to the invention, formulated in the form of wettable powders (WP) or as emulsifiable concentrates (EC), were applied to the surface of the covering soil as aqueous suspension or emulsion, with the addition of 0.5% of an additive, at an application rate of 600 l of water per hectare (converted). Following treatment, the pots were placed in a greenhouse and kept under optimum growth conditions for the test plants. The visual grading of the damage to the test plants was carried out after ca. 3 weeks in comparison to untreated controls (herbicidal effect in percent (%): 100% effect=plants have died off, 0% effect=as control plants).

Setaria viridis (SETVI) [3] = assay: Herbicidal pre-emergence action, section A (Table A8); conditions: for pest or weed control at 320 g/ha: Setaria viridis, 504 h, read-out: pre-emergence activity against SETVI in %
Summary of the method: (§2)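 Seeds sown in sandy loam and covered with soil; compounds formulated as WP or EC were applied to the soil surface as aqueous suspension or emulsion with 0.5% additive at 600 l water/ha. Pots kept in greenhouse under optimum conditions; damage scored visually after ca. 3 weeks versus untreated controls (0–100%).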

Lolium rigidum (LOLRI) = assay: Herbicidal pre-emergence action, section C (Table C5); conditions: visual grading after ca. 3 weeks
Text: Seeds of mono- and dicotyledonous weed plants and crop plants were sown, in plastic or organic planting pots, in sandy loam and covered with soil. The compounds according to the invention, formulated in the form of wettable powders (WP) or as emulsifiable concentrates (EC), were applied to the surface of the covering soil as aqueous suspension or emulsion, with the addition of 0.5% of an additive, at an application rate of 600 l of water/ha (converted). Following treatment, the pots were placed in a greenhouse and kept under optimum growth conditions for the test plants. The visual grading of the damage to the test plants was carried out after ca. 3 weeks in comparison to untreated controls (herbicidal effect in percent (%): 100% effect=plants have died off, 0% effect=as control plants).

[4] = tested on: Echinochloa crus-galli (ECHCG); assay: Herbicidal pre-emergence action, section A (Table A3); conditions: visual grading after ca. 3 weeks vs untreated controls; for pest or weed control at 320 g/ha: Echinochloa crus-galli, pre-emergence, 504 h, read-out: pre-emergence activity against ECHCG in %
Summary of the method: as §2

[5] = tested on: Echinochloa crus-galli (ECHCG); assay: Herbicidal post-emergence action, section B (Table B3); conditions: rated visually after about 3 weeks; for pest or weed control at 1280 g/ha: Echinochloa crus-galli, 504 h, read-out: post-emergence activity against ECHCG in %
Summary of the method: as §1

Veronica persica (VERPE) = assay: Herbicidal pre-emergence action, section A (Table A10); conditions: for pest or weed control at 1280 g/ha: Veronica persica, 504 h, read-out: pre-emergence activity against VERPE in %
Summary of the method: as §2

Zea mays (ZEAMX) [6] = assay: Post-emergence effects on crop plants, section F (Table F1); conditions: for post-emergence activity against ZEAMX in %: crop plant damage
Summary of the method: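 Crops grown in sandy loam in the greenhouse were sprayed post-emergence at the single-leaf stage, 2-3 weeks after sowing. Compounds were formulated as WP or EC with 0.5% additive and applied in 600 l water/ha at 320 g/ha or below. Damage was scored visually about 3 weeks later as % effect versus untreated controls (100% = dead).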

[7] = tested on: Triticum aestivum (TRZAS); assay: Pre-emergence effects on crop plants, section D (Table D2); conditions: visual grading after ca. 3 weeks
Summary of the method: (§3)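 Pre-emergence soil-surface spray, 320 g/ha or below, 600 l water/ha + 0.5% additive; WP/EC formulations; sandy loam; greenhouse; visual % damage vs untreated at ~3 wk.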

Zea mays (ZEAMX) [8] = assay: Pre-emergence effects on crop plants, section D (Table D1); conditions: visual grading after ca. 3 weeks
Summary of the method: as §3

Setaria viridis (SETVI) [9] = assay: Herbicidal pre-emergence action, section C (Table C8); conditions: visual grading after ca. 3 weeks
Summary of the method: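 Weed and crop seeds sown in sandy loam, covered with soil, then WP or EC formulations sprayed onto the soil surface as aqueous suspension/emulsion with 0.5% additive at 600 l water/ha. Kept in greenhouse under optimum conditions; damage graded visually after ca. 3 weeks versus untreated controls (0% = as control, 100% = plants dead).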

Compound	post-emergence activity against DIGSA in % ([1]; application rate 1280 g/ha) [%]	pre-emergence activity against ABUTH in % ([2]; application rate 1280 g/ha) [%]	pre-emergence activity against LOLRI in % (Lolium rigidum (LOLRI); application rate 320 g/ha) [%]	pre-emergence activity against ECHCG in % ([4]; application rate 320 g/ha) [%]	post-emergence activity against ECHCG in % ([5]; application rate 1280 g/ha) [%]	pre-emergence activity against VERPE in % (Veronica persica (VERPE); application rate 1280 g/ha) [%]	post-emergence activity against ZEAMX in % (Zea mays (ZEAMX) [6]; application rate 320 g/ha) [%]	pre-emergence activity against SETVI in % (Setaria viridis (SETVI) [3]; application rate 320 g/ha) [%]	pre-emergence activity against TRZAS in % (crop plant damage) ([7]; application rate 80 g/ha) [%]	post-emergence activity against ECHCG in % ([5]; application rate 320 g/ha) [%]	pre-emergence activity against ZEAMX in % (crop plant damage) (Zea mays (ZEAMX) [8]; application rate 320 g/ha) [%]	pre-emergence activity against SETVI in % (Setaria viridis (SETVI) [9]; application rate 80 g/ha) [%]	pre-emergence activity against ZEAMX in % (crop plant damage) (Zea mays (ZEAMX) [8]; application rate 80 g/ha)	pre-emergence activity against SETVI in % (Setaria viridis (SETVI) [9]; application rate 320 g/ha) [%]	also measured
COC(=O)CCC(=O)N1CSc2cc(C)c(-c3ccccc3F)nc21 [Example I-010]	90	90	100	100	90	90	–	–	–	–	–	–	–	–	pre-emergence activity against SETVI in % (Setaria viridis (SETVI) [3]; application rate 1280 g/ha): 100%
Cc1cc2c(nc1-c1ccccc1)N(C(=O)C1(C)CC(Cl)=NO1)CS2 (centres unmarked) [Example I-088]	100	–	–	100	–	90	0	100	0	90	0	100	–	–	–
Cc1cc2c(nc1-c1ccccc1F)N(C(=O)C13CCCC1C(Cl)=NO3)CS2 (centres unmarked) [Example I-104]	90	90	100	100	–	90	–	100	0	90	–	100	0) %	–	post-emergence activity against ZEAMX in % (Zea mays (ZEAMX) [6]; application rate 80 g/ha): 20%
Cc1cc2c(nc1-c1cccc(C)c1F)NCS2 [Example I-113]	–	–	90	–	–	90	0	100	–	–	0	–	–	100	post-emergence activity against DIGSA in % ([1]; application rate 320 g/ha): 90%; pre-emergence activity against ECHCG in % ([4]; application rate 1280 g/ha): 100%; pre-emergence activity against TRZAS in % (crop plant damage) ([7]; application rate 320 g/ha): 10%
Cc1cc2c(nc1-c1ccccc1F)N(S(=O)(=O)Cc1ccc(F)cc1)CS2 [Example I-122]	90	90	100	100	100	90	0	100	10	–	0	–	–	100	–
CCOCCS(=O)(=O)N1C[S+]([O-])c2cc(C)c(-c3ccccc3F)nc21 (centres unmarked) [Example I-127]	–	–	–	–	–	–	–	–	20	–	–	–	20%	–	pest or weed control at 1280 g/ha ([1]; application rate 1280 g/ha): 90%; percent crop plant damage (phytotoxicity) on Zea mays, post-emergence at 80 g/ha (Zea mays (ZEAMX) [6]; Zea mays, 504 h, application rate 80 g/ha, read-out: post-emergence activity against ZEAMX in %): 20%; pest or weed control at 320 g/ha (Setaria viridis (SETVI) [3]; application rate 320 g/ha): 100%; pest or weed control at 80 g/ha (Lolium rigidum (LOLRI); Lolium rigidum, pre-emergence, 504 h, application rate 80 g/ha, read-out: pre-emergence activity against LOLRI in %): 80%; pest or weed control at 320 g/ha ([4]; application rate 320 g/ha): 100%; pest or weed control at 1280 g/ha ([5]; application rate 1280 g/ha): 90%; pest or weed control at 1280 g/ha (Veronica persica (VERPE); application rate 1280 g/ha): 90%; pest or weed control at 80 g/ha (Setaria viridis (SETVI) [9]; Setaria viridis, pre-emergence, 504 h, application rate 80 g/ha, read-out: pre-emergence activity against SETVI in %): 100%
COCC1(C(=O)N2CSc3cc(C)c(-c4ccccc4F)nc32)CC(Cl)=NO1 (centres unmarked) [Example I-128]	90	–	–	100	–	–	0	100	–	90	–	100	0%	–	pre-emergence activity against ABUTH in % ([2]; application rate 320 g/ha): 90%; pre-emergence activity against LOLRI in % (Lolium rigidum (LOLRI); application rate 80 g/ha): 100%; pre-emergence activity against VERPE in % (Veronica persica (VERPE); application rate 320 g/ha): 90%
Cc1ccccc1-c1nc2c(cc1C)SCN2C(=O)C1(C)CC(Cl)=NO1 (centres unmarked) [Example I-137]	90	100	100	100	–	–	–	100	0	90	–	100	20%	–	post-emergence activity against ZEAMX in % (Zea mays (ZEAMX) [6]; application rate 80 g/ha): 0%; pre-emergence activity against VERPE in % (Veronica persica (VERPE); application rate 320 g/ha): 90%
CC1(C(=O)N2CSc3cc(Br)c(-c4ccccc4)nc32)CC(Cl)=NO1 (centres unmarked) [Example I-139]	90	–	80	100	90	90	0	100	–	–	20	–	–	100	pre-emergence activity against ABUTH in % ([2]; application rate 320 g/ha): 90%
CC1(C(=O)N2CSc3cc(Br)c(-c4ccccc4Cl)nc32)CC(Cl)=NO1 (centres unmarked) [Example I-141, [6-bromo-5-(2-chlorophenyl)[1,3]thiazolo[4,5-b]pyridin-3(2H)-yl](3-chloro-5-methyl-4,5-dihydro-1,2-oxazol-5-yl)methanone]	–	–	–	–	–	–	–	–	0	–	–	–	0%	–	pest or weed control at 1280 g/ha ([1]; application rate 1280 g/ha): 90%; pest or weed control at 320 g/ha ([2]; Abutilon theophrasti, pre-emergence, 504 h, application rate 320 g/ha, read-out: pre-emergence activity against ABUTH in %): 100%; percent crop plant damage (phytotoxicity) on Zea mays, post-emergence at 320 g/ha (Zea mays (ZEAMX) [6]; Zea mays, 504 h, application rate 320 g/ha, read-out: post-emergence activity against ZEAMX in %): 0%; pest or weed control at 320 g/ha (Setaria viridis (SETVI) [3]; application rate 320 g/ha): 100%; pest or weed control at 320 g/ha ([4]; application rate 320 g/ha): 100%; pest or weed control at 1280 g/ha ([5]; application rate 1280 g/ha): 90%; pest or weed control at 1280 g/ha (Veronica persica (VERPE); application rate 1280 g/ha): 90%; pest or weed control at 320 g/ha (Setaria viridis (SETVI) [9]; Setaria viridis, pre-emergence, 504 h, application rate 320 g/ha, read-out: pre-emergence activity against SETVI in %): 100%
